# Several values for one entry are separate records, joined by “and”; a condition that tells them apart may be missing. Equal entries are not always repeated. Records with an inconclusive call do not appear.
# Test system: MX-1 breast xenograft, intrarenal, nude mice, tumor weight
# Test: NCI In Vivo Anticancer Drug Screen. Data for tumor model Human Mammary Carcinoma MX-1 Xenograft (intrarenal inoculation) in NU/NU BALB/C (nude) mice
# Settings: endpoint: mean tumor weight change, higher = larger tumour
# Outline: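 Antitumor activity is expressed as a T/C ratio. The treated group's tumor size or survival is compared against the vehicle-treated control group in mice bearing transplanted tumors.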
# [1] = dose: 150.0 mg/kg/injection, schedule: Q04DX003 (ip), vehicle: saline with Tween-80
# [2] = dose: 300.0 mg/kg/injection, schedule: Q04DX003 (ip), vehicle: saline with Tween-80
# [3] = dose: 600.0 mg/kg/injection, schedule: Q04DX003 (ip), vehicle: saline with Tween-80
# [4] = dose: 150.0 mg/kg/injection, schedule: Q04DX003 (ip), vehicle: saline
# [5] = dose: 150.0 mg/kg/injection, schedule: Q04DX003 (ip), vehicle: suspension in saline
# [6] = dose: 300.0 mg/kg/injection, schedule: Q04DX003 (ip), vehicle: saline
# [7] = dose: 300.0 mg/kg/injection, schedule: Q04DX003 (ip), vehicle: suspension in saline
# [8] = dose: 600.0 mg/kg/injection, schedule: Q04DX003 (ip), vehicle: saline
# [9] = dose: 600.0 mg/kg/injection, schedule: Q04DX003 (ip), vehicle: suspension in saline
# [10] = dose: 1200.0 mg/kg/injection, schedule: Q04DX003 (ip), vehicle: saline
# [11] = dose: 1200.0 mg/kg/injection, schedule: Q04DX003 (ip), vehicle: suspension in saline
structure (smiles),measurement,setting,value
CN=C(N)N/N=C(\C)c1ccc2sc3ccc(/C(C)=N/NC(N)=NC)cc3c2c1,T/C,[1],90 % of control
same,T/C,[2],59 % of control
C/C(=N\NC(=O)c1ccccc1O)c1cccc(/C(C)=N/NC(=O)c2ccccc2O)n1,T/C,"dose: 25.0 mg/kg/injection, schedule: Q04DX003 (ip), vehicle: saline",109 % of control
same,T/C,"dose: 50.0 mg/kg/injection, schedule: Q04DX003 (ip), vehicle: saline",77 % of control
same,T/C,"dose: 100.0 mg/kg/injection, schedule: Q04DX003 (ip), vehicle: saline",100 % of control
C=CCNC(=O)c1ccccc1SC(C)=O,T/C,[1],93 % of control
same,T/C,[2],99 % of control
Cc1c(O)/c(=C\O)c2nc3c(=O)ccc(C(=O)NCCN(C)C)c3[nH]c2c1=O,T/C,"dose: 50.0 mg/kg/injection, schedule: Q04DX003 (ip), vehicle: other",77 % of control
same,T/C,"dose: 100.0 mg/kg/injection, schedule: Q04DX003 (ip), vehicle: other",100 % of control
same,T/C,"dose: 200.0 mg/kg/injection, schedule: Q04DX003 (ip), vehicle: other",44 % of control
C[n+]1c(-c2ccc(/C=N/NC(=O)c3ccc(C(=O)N/N=C/c4ccc(-c5cn6ccccc6[n+]5C)cc4)cc3)cc2)cn2ccccc21,T/C,"dose: 75.0 mg/kg/injection, schedule: Q04DX003 (ip), vehicle: saline with Tween-80",92 % of control
same,T/C,[1],56 % of control
same,T/C,[2],65 % of control
same,T/C,[3],69 % of control
COc1cccc2c1C(=O)c1c(O)c3c(c(O)c1C2=O)CC(O)(C(=O)CO)CC3OC1CC(N)C(O)C(C)O1 (configuration not stated),T/C,"dose: 25.0 mg/kg/injection, schedule: Q01DX010 (sc), vehicle: saline",41 % of control
same,T/C,"dose: 50.0 mg/kg/injection, schedule: Q01DX010 (sc), vehicle: saline",22 % of control
COc1c2c(c(O)c3c4c(c(C)cc13)C1OC3(C(OC)OC5CC(C)(O)C(OC6CC(C)(O)C(O)C(C)O6)C(C)O5)OC1C(OC)(O4)C31CO1)C(=O)C(O)CC2OC1CC(C)(O)C(OC(C)=O)C(C)O1 (configuration not stated),T/C,"dose: 0.06 mg/kg/injection, schedule: Q04DX003 (ip), vehicle: saline",61 % of control
same,T/C,"dose: 0.5 mg/kg/injection, schedule: Q04DX003 (ip), vehicle: saline",45 % of control
CCC1(O)C(=O)OCc2c1cc1n(c2=O)Cc2cc3cc4c(cc3nc2-1)OCO4 (configuration not stated),T/C,"dose: 4.0 mg/kg/injection, schedule: Q04DX003 (ip), vehicle: saline with Tween-80",-100 % of control
Nc1nc(N)c2cc(CNc3ccc(C(=O)NC(CC(=O)O)CC(=O)O)cc3)ccc2n1,T/C,"dose: 150.0 mg/kg/injection, schedule: Q04DX003 (sc), vehicle: Klucel (hydroxypropylcellulose) (HPC)",103 % of control
same,T/C,"dose: 300.0 mg/kg/injection, schedule: Q04DX003 (sc), vehicle: Klucel (hydroxypropylcellulose) (HPC)",86 % of control
same,T/C,"dose: 600.0 mg/kg/injection, schedule: Q04DX003 (sc), vehicle: Klucel (hydroxypropylcellulose) (HPC)",91 % of control
same,T/C,"dose: 1200.0 mg/kg/injection, schedule: Q04DX003 (sc), vehicle: Klucel (hydroxypropylcellulose) (HPC)",101 % of control
COc1ccc2c(c1)CCn1c(C)c(COC(=O)NC(C)C)c(COC(=O)NC(C)C)c1-2,T/C,"dose: 75.0 mg/kg/injection, schedule: Q04DX003 (ip), vehicle: distilled water + Tween-80",-29 % of control
CNc1ncn(-c2c(C)cccc2C)c(=O)n1,T/C,[1],92 % of control and 97 % of control
same,T/C,[2],77 % of control
same,T/C,[3],25 % of control
N[C@@H](C[C@H]1CCC(=O)[C@@H]2O[C@H]12)C(=O)O,T/C,[4],94 % of control
same,T/C,[5],100 % of control
same,T/C,[6],90 % of control
same,T/C,[7],75 % of control
same,T/C,[8],104 % of control
same,T/C,[9],82 % of control
same,T/C,[10],47 % of control
same,T/C,[11],62 % of control
O=c1[nH]cnc2c1nnn2C1OC(CO)C(O)C1O (configuration not stated),T/C,[4],18 % of control and 32 % of control
same,T/C,[5],11 % of control and 24 % of control
same,T/C,[6],17 % of control and 19 % of control
same,T/C,[7],10 % of control and 20 % of control
same,T/C,[8],8 % of control and 13 % of control
same,T/C,[9],9 % of control and 13 % of control
same,T/C,[10],9 % of control and 11 % of control
same,T/C,[11],8 % of control and 12 % of control
C=CC(C)NC(=S)NNC(=S)NC (configuration not stated),T/C,"dose: 300.0 mg/kg/injection, schedule: Q04DX003 (sc), vehicle: saline + alcohol",85 % of control
same,T/C,"dose: 600.0 mg/kg/injection, schedule: Q04DX003 (sc), vehicle: saline + alcohol",58 % of control
same,T/C,"dose: 1200.0 mg/kg/injection, schedule: Q04DX003 (sc), vehicle: saline + alcohol",99 % of control
Clc1ccccc1C(Nc1cnccn1)Nc1cnccn1,T/C,[2],70 % of control and 89 % of control

# — PubChem BioAssay AID298 (DTP/NCI, 2004)
